PMC7118210 (Frontiers in Pharmacology, 2020)
Like-named read-outs stand apart in the source and are kept apart here.

Key:
[1] = cited from earlier work
[2] = set-up: method as in Liu M. et al., 2012; details: dogs, ref Liu M. et al., 2012, cited from earlier work
[3] = Multiple-dose pharmacokinetics in rats; assay type: in vivo, Sprague Dawley rats
Procedure: The optimal volume and activity in unit volume of enzyme solution [0.2 M acetic acid/water solution: 0.2 M ammonium acetate/water solution, 15:35 (v/v)] were determined through a pretest of the enzyme (rat plasma, 10 μl, 10 U μl^-1; dog plasma, 10 μl, 10 U μl^-1; human plasma, 20 μl, 20 U μl^-1; human urine, 10 μl, 10 U μl^-1). After enzyme incubation, 10 μl of IS solution was added to the plasma and urine samples (2 μg ml^-1 quercetin 3-β-D-glucoside for rat and dog plasma; 583 ng ml^-1 naringin-D4 and 160 ng ml^-1 naringenin-D4 for human plasma; and 9,710 ng ml^-1 naringin-D4 and 6,000 ng ml^-1 naringenin-D4 for human urine). To each fecal sample, 9-fold methanol-normal saline (2:1, v/v) was added, mixed (18,000 rpm, 15 min) by vortexing and centrifuged (10 min, 9,000 rpm, 4°C). Next, 10 μl IS solution (971 ng ml^-1 naringin-D4 and 600 ng ml^-1 naringenin-D4) was added to the supernatants of feces (200 μl) without enzyme incubation. […] The solid material was dissolved with acetonitrile-water (1:1, v/v) and injected into the ultra high-performance liquid chromatography coupled with triple quadrupole mass spectrometry (UHPLC/MS/MS) system as described below. The analysis of nonclinical and clinical samples was performed with a UHPLC/MS/MS system that consisted of a Shimadzu Nexera X2 ultra high-performance liquid chromatography (UHPLC) (Shimadzu Corp., Kyoto, Japan) coupled with an AB Sciex API4000 triple-quadrupole mass spectrometry (MS/MS) system (AB Sciex, Foster City, CA, USA) equipped with an electrospray ionization source and controlled by Analyst (v. 1.6.2) software. […] The injection volume was 10 μl with the flow rate of 0.3 ml min^-1 for plasma, and 0.4 ml min^-1 for urine and feces. The compounds were detected by multiple reaction monitoring in the negative ion electrospray mode. The electrospray source conditions were as follows: ion source gas1 30 psi, ion source gas2 60 psi, curtain gas 20 psi, collisionally activated dissociation (CAD) gas 8 psi, temperature 500°C, and ion spray voltage −4,500 V. Zero air was used for ion source gas1 and ion source gas2 and nitrogen for curtain gas and CAD gas. […] All pharmacokinetic and excretion parameters were expressed as mean ± standard deviation (SD). All mean and SD values were reported to three significant figures. The pharmacokinetic parameters were calculated using the Phoenix WinNonlin software (Version 6.4, Pharsight Corp., Cary, NC, USA) and compared using the Student's t-test (p < 0.05) in SPSS 18.0 (SPSS Inc., Chicago, IL, USA). […] For the multiple-dose studies, pharmacokinetic parameters included the mean plasma level at steady state, Tmax, t1/2, the percent fluctuation, and the accumulation index (Table 3). […] In addition, we compared the pharmacokinetic parameters obtained from males and females (Tables 4–6).

[4] = naringin 42 mg kg^-1 multiple dose, rat, female
[5] = naringin 42 mg kg^-1 multiple dose, rat, male
[6] = naringin 42 mg kg^-1 p.o. three times a day, multiple dose, rat

Row | accumulation in multiple-dose study ([3]; rat, in vivo) | Compound | time within which excreted ([1]; rats, ref Liu M. et al., 2012) [h] | time within which excreted [2] [h] | CavSS [3, 4] [ng/mL] | CavSS [3, 5] [ng/mL] | CavSS [3, 6] [ng/mL] | cumulative excretion percentage ([1]; aged rats, in the forms of naringin and naringenin, ref Zeng et al., 2019) [%] | cumulative excretion percentage ([1]; aged rats, in the forms of naringin, naringenin, and 4-hydroxyphenylpropionic acid, ref Zeng et al., 2019) [%] | cumulative excretion percentage ([1]; rats, in the forms of naringin, naringenin, and 4-hydroxyphenylpropionic acid, ref Liu M. et al., 2012) [%] | cumulative excretion percentage ([2]; in the forms of naringin, naringenin, and 4-hydroxyphenylpropionic acid) [%] | Fluctuation [3, 4] [%] | Fluctuation [3, 5] | Fluctuation ([3]; naringin 42 mg kg^-1 p.o. three times a day, multiple dose, rat, (CmaxSS−CminSS)/CavSS×100%) [%] | accumulation in multiple-dose study ([3]; rats)
1 | no significant accumulation | O=C1C[C@@H](c2ccc(O)cc2)Oc2cc(O)cc(O)c21 [naringenin, Naringenin] | ≤ 24 | ≤ 24 | 600 ± 517 | 178 ± 90.8 | 389 ± 415 | – | – | – | – | – | – | – | –
2 | – | C[C@@H]1O[C@@H](O[C@H]2[C@H](Oc3cc(O)c4c(c3)O[C@H](c3ccc(O)cc3)CC4=O)O[C@H](CO)[C@@H](O)[C@@H]2O)[C@H](O)[C@H](O)[C@H]1O [naringin, Naringin] | ≤ 24 | ≤ 24 | 17.4 ± 19.9 | 6.03 ± 9.48 | 11.7 ± 15.9 | 19 | 98 | 21 | 60 | 612 ± 233 | 844 ± 1,030% | 728 ± 711 | no significant accumulation
